This passage reports IC50 results from ChEMBL document CHEMBL2429778, “Hydroxyclerodanes from Salvia shannoni” (J Nat Prod, 2013).

The test system of one assay is Giardia intestinalis. In words: Antiprotozoal activity against clinical isolates of Giardia lamblia IMSS:8901:1. As to conditions: Giardia duodenalis. It counts as functional, organism-based.
Another assay relates to Entamoeba histolytica. Briefly: Antiprotozoal activity against clinical isolates of Entamoeba histolytica HM-1:IMSS. Format: functional, organism-based.
A further assay has as its system SK-LU-1. Briefly: Cytotoxicity against human SKLU1 cells after 48 hrs by SRB method. Format: functional, cell-based. As to conditions: SK-LU-1, 48 h.
The next assay relates to Mus musculus. In words: Antiinflammatory activity against TPA-induced CD-1 mouse ear edema model assessed as swelling per ear after 4 hrs relative to control. Format: functional, organism-based.
For a further assay, the system named is PC-3. In words: Cytotoxicity against human PC3 cells after 48 hrs by SRB method. It counts as functional, cell-based. As to conditions: PC-3, 48 h.
In a further assay the test system is K562. Briefly: Cytotoxicity against human K562 cells after 48 hrs by SRB method. As to conditions: K562, 48 h. Format: functional, cell-based.
For the next assay, the system named is U-251. Briefly: Cytotoxicity against human U251 cells after 48 hrs by SRB method. Format: functional, cell-based. As to conditions: U-251, 48 h.
The subject of a further assay is HCT-15. In words: Cytotoxicity against human HCT15 cells after 48 hrs by SRB method. It counts as functional, cell-based. As to conditions: HCT-15, 48 h.
Another assay concerns MCF7. In words: Cytotoxicity against human MCF7 cells after 48 hrs by SRB method. It counts as functional, cell-based. As to conditions: MCF7, 48 h.

Converted amounts (≈) assume the structure as drawn. Some results are limits rather than exact numbers.

On to `C[C@]12C[C@H](c3ccoc3)OC(=O)[C@H]1CC[C@@]13COC(=O)[C@H]1C[C@@H]1O[C@@H]1[C@]32O`, for which the IC50 was 63.3 µg/mL (≈ 169 µM) in the assay on Giardia intestinalis; 56.8 µg/mL (≈ 152 µM) with Entamoeba histolytica; more than 50 µM with SK-LU-1; more than 1 µmol in the assay with Mus musculus; more than 50 µM with PC-3; more than 50 µM with K562. The IC50 with U-251, with HCT-15 and in the assay on MCF7 was more than 50 µM each time.
For `C[C@]12C[C@H](c3ccoc3)OC(=O)[C@@]1(O)CC[C@@]13COC(=O)[C@H]1CC=C[C@]32O`, the results for the IC50 in the assay with Giardia intestinalis and with Entamoeba histolytica were 85.8 µg/mL (≈ 229 µM) and 79.7 µg/mL (≈ 213 µM), respectively.
For the molecule `C[C@]12C[C@H](c3ccoc3)OC(=O)[C@H]1CC[C@@]13COC(=O)[C@H]1CC=C[C@]32O`, the IC50 is 94.8 µg/mL (≈ 265 µM) in the assay on Giardia intestinalis; 84.7 µg/mL (≈ 236 µM) with Entamoeba histolytica; more than 50 µM in the assay on SK-LU-1; more than 1 µmol in the assay on Mus musculus; more than 50 µM in the assay on PC-3; more than 50 µM in the assay with K562. Further, the IC50 in the assay with U-251, in the assay with HCT-15 and in the assay with MCF7 was more than 50 µM each time.
Take `C[C@]12C[C@H](c3ccoc3)OC(=O)[C@@]1(O)CC[C@@]13COC(=O)[C@H]1CC=C[C@H]32`: the IC50 with Giardia intestinalis was 73.1 µg/mL (≈ 204 µM); in the assay with Entamoeba histolytica, 63.3 µg/mL (≈ 177 µM); with SK-LU-1, more than 50 µM; in the assay with Mus musculus it was more than 1 µmol; in the assay on PC-3, more than 50 µM; in the assay on K562, more than 50 µM. In addition, the IC50 in the assay on U-251, with HCT-15 and in the assay on MCF7 was more than 50 µM each time.
For `C[C@]12C[C@H](c3ccoc3)OC(=O)[C@@]1(O)CC[C@@]13COC(=O)[C@]1(O)CC=C[C@]23O`, the IC50 in the assay on Giardia intestinalis was 82.1 µg/mL (≈ 210 µM); in the assay on Entamoeba histolytica it was 76.3 µg/mL (≈ 195 µM); in the assay with SK-LU-1, more than 50 µM; in the assay on Mus musculus, more than 1 µmol; in the assay with PC-3, more than 50 µM; with K562 it was more than 50 µM. The IC50 in the assay with U-251, with HCT-15 and with MCF7 was more than 50 µM throughout.
For `C[C@]12C[C@H](c3ccoc3)OC(=O)[C@@]1(O)CC[C@@]13COC(=O)[C@@H]1C=CC[C@@H]32`, the IC50 in the assay on Giardia intestinalis is 42.4 µg/mL (≈ 118 µM); in the assay with Entamoeba histolytica it was 56.5 µg/mL (≈ 158 µM); in the assay on SK-LU-1 it was more than 50 µM; in the assay with Mus musculus, more than 1 µmol; with PC-3, more than 50 µM; in the assay on K562, more than 50 µM. For the same molecule, the IC50 in the assay with U-251, in the assay on HCT-15 and with MCF7 was more than 50 µM each time.
With `C[C@]12C[C@H](c3ccoc3)OC(=O)[C@H]1CC[C@@]13COC(=O)[C@@H]1C=C[C@@H](O)[C@H]23`, the IC50 in the assay with Giardia intestinalis turned out to be 71.7 µg/mL (≈ 200 µM); with Entamoeba histolytica, 57.4 µg/mL (≈ 160 µM).
In the same order, the values of `Oc1cc(O)c2c(c1)O[C@H](c1ccc(O)c(O)c1)[C@@H](O)C2` [CIANIDANOL] are 33.9 µg/mL (≈ 117 µM) and 65.6 µg/mL (≈ 226 µM).
With `C[C@]12C[C@H](c3ccoc3)OC(=O)[C@@]1(O)CC[C@@]13COC(=O)C1=CC[C@H]1O[C@]132` [TEHUANINE G], the IC50 with Giardia intestinalis was determined as 86.4 µg/mL (≈ 232 µM); in the assay on Entamoeba histolytica, 71.2 µg/mL (≈ 191 µM).
As for `NCCc1ccc(O)cc1` [TYRAMINE], the IC50 was found to be 68.9 µg/mL (≈ 502 µM) in the assay on Giardia intestinalis and 54.2 µg/mL (≈ 395 µM) in the assay with Entamoeba histolytica.
